Biological target: T1, FLT3-ITD (Homo sapiens, UniProt P36888)
T1 sequence (P36888 1-993): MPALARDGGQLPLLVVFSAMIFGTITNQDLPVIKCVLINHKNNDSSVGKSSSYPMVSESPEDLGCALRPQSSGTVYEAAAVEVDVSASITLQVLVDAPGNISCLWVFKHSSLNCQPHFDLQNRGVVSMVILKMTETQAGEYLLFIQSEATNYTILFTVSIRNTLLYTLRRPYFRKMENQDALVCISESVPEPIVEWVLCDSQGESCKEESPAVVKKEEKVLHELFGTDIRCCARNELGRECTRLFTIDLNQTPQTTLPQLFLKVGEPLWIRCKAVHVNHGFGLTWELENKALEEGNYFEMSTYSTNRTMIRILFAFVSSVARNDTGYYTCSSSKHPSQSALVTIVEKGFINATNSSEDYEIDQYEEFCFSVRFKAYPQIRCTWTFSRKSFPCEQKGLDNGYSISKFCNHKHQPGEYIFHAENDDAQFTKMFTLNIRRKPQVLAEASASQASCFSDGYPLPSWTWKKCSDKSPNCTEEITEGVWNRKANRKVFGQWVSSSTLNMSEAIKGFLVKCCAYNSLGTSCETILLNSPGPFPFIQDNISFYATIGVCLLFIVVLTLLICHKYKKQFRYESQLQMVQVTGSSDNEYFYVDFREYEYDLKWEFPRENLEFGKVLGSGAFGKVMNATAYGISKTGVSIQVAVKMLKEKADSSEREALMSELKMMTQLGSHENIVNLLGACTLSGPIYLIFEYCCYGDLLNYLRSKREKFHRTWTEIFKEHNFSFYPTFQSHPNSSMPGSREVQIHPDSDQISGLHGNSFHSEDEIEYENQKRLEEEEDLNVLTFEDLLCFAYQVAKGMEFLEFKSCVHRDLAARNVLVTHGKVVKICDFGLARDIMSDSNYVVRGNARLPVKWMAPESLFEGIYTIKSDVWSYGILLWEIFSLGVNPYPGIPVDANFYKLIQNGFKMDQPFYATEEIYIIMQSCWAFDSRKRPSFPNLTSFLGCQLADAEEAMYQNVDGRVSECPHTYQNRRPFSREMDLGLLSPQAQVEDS
Test: FLT3-ITD recombinant enzyme kinase assay (AlphaScreen)
Type: biochemical
Conditions: 8 pt; read-out: FLT3_ITD 8 pt: IC50
Summary of the method: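 Recombinant enzyme phosphorylated biotinylated poly(Glu4-Tyr) peptide (30 nM final) with ATP at 10 μM for FLT3-ITD and FLT3-D835Y or 100 μM for c-KIT. Phosphopeptide was detected by AlphaScreen with streptavidin donor and anti-phosphotyrosine (PY20) acceptor beads (10 μg/mL), read at 580 nm, for IC50 determination.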

Row | IC50 [µM] | SMILES
1 | 0.0001 to 10 | Cn1cc(Nc2ncc(-c3ccc(CC(=O)NCc4cncc(C(F)(F)F)c4)cc3)cn2)cn1 [Compound P-0161, 2-[4-[2-[(1-methylpyrazol-4-yl)amino]pyrimidin-5-yl]phenyl]-N-[[5-(trifluoromethyl)-3-pyridyl]methyl]acetamide]
2 | 0.0001 to 10 | Cn1cc(Nc2ncc(-c3ccc(CC(=O)Nc4cc(Cl)c(C5CC5)cn4)cc3)cn2)cn1 [Compound P-0164, N-(4-chloro-5-cyclopropyl-2-pyridyl)-2-[4-[2-[(1-methylpyrazol-4-yl)amino]pyrimidin-5-yl]phenyl]acetamide]
3 | 0.0001 to 10 | CCn1cc(Nc2ncc(-c3ccc(CC(=O)Nc4cnc(Cl)c(C(F)(F)F)c4)cc3)cn2)cn1 [Compound P-0165, N-[6-chloro-5-(trifluoromethyl)-3-pyridyl]-2-[4-[2-[(1-ethylpyrazol-4-yl)amino]pyrimidin-5-yl]phenyl]acetamide]
4 | 0.0001 to 10 | CCn1cc(Nc2ncc(-c3ccc(CC(=O)Nc4cncc(C(F)(F)F)c4)cc3)cn2)cn1 [Compound P-0166, 2-[4-[2-[(1-ethylpyrazol-4-yl)amino]pyrimidin-5-yl]phenyl]-N-[5-(trifluoromethyl)-3-pyridyl]acetamide]
5 | 0.0001 to 10 | Cn1cnc(Nc2ncc(-c3ccc(CC(=O)Nc4cncc(C(F)(F)F)c4)cc3)cn2)c1 [Compound P-0167]
6 | 0.0001 to 10 | Cn1cnc(Nc2ncc(-c3ccc(CC(=O)Nc4cnc(F)c(C(C)(F)F)c4)cc3)cn2)c1 [Compound P-0168, N-[5-(1,1-difluoroethyl)-6-fluoro-3-pyridyl]-2-[4-[2-[(1-methylimidazol-4-yl)amino]pyrimidin-5-yl]phenyl]acetamide]
7 | 0.0001 to 10 | Cn1cnc(Nc2ncc(-c3ccc(CC(=O)Nc4cc(C(C)(F)F)ccn4)cc3)cn2)c1 [Compound P-0169, N-[4-(1,1-difluoroethyl)-2-pyridyl]-2-[4-[2-[(1-methylimidazol-4-yl)amino]pyrimidin-5-yl]phenyl]acetamide]
8 | 0.0001 to 10 | Cn1cnc(Nc2ncc(-c3ccc(CC(=O)Nc4cnc(F)c(C(C)(F)F)c4)cc3F)cn2)c1 [Compound P-0170, N-[5-(1,1-difluoroethyl)-6-fluoro-3-pyridyl]-2-[3-fluoro-4-[2-[(1-methylimidazol-4-yl)amino]pyrimidin-5-yl]phenyl]acetamide]
9 | 0.0001 to 10 | Cc1ncc(NC(=O)Cc2ccc(-c3cnc4[nH]nc(C)c4c3)c(F)c2)cc1C(F)(F)F [Compound P-0172, 2-[3-fluoro-4-(3-methyl-1H-pyrazolo[3,4-b]pyridin-5-yl)phenyl]-N-[6-methyl-5-(trifluoromethyl)-3-pyridyl]acetamide]
10 | 0.0001 to 10 | Cc1n[nH]c2ncc(-c3cc(F)c(CC(=O)Nc4cncc(C(F)(F)F)c4)cc3F)cc12 [Compound P-0173, 2-[2,5-difluoro-4-(3-methyl-1H-pyrazolo[3,4-b]pyridin-5-yl)phenyl]-N-[5-(trifluoromethyl)-3-pyridyl]acetamide]
11 | 0.0001 to 10 | COc1ncc(NC(=O)Cc2ccc(-c3cnc4[nH]nc(C)c4c3)c(F)c2)cc1C(F)(F)F [Compound P-0174, 2-[3-fluoro-4-(3-methyl-1H-pyrazolo[3,4-b]pyridin-5-yl)phenyl]-N-[6-methoxy-5-(trifluoromethyl)-3-pyridyl]acetamide]
12 | 0.0001 to 10 | Cc1ncc(NC(=O)Cc2cc(F)c(-c3cnc4[nH]nc(C)c4c3)cc2F)cc1C(F)(F)F [Compound P-0175, 2-(2,5-difluoro-4-(3-methyl-1H-pyrazolo[3,4-b]pyridin-5-yl)phenyl)-N-(6-methyl-5-(trifluoromethyl)pyridin-3-yl)acetamide]
13 | 0.0001 to 10 | COc1ncc(NC(=O)Cc2cc(F)c(-c3cnc4[nH]nc(C)c4c3)cc2F)cc1C(F)(F)F [Compound P-0176, 2-[2,5-difluoro-4-(3-methyl-1H-pyrazolo[3,4-b]pyridin-5-yl)phenyl]-N-[6-methoxy-5-(trifluoromethyl)-3-pyridyl]acetamide]
14 | 0.0001 to 10 | Cc1n[nH]c2ncc(-c3ccc(CC(=O)Nc4cncc(C(F)(F)F)c4)cc3F)cc12 [Compound P-0177, 2-[3-fluoro-4-(3-methyl-1H-pyrazolo[3,4-b]pyridin-5-yl)phenyl]-N-[5-(trifluoromethyl)-3-pyridyl]acetamide]
15 | 0.0001 to 10 | COCCn1cc(Nc2ncc(-c3ccc(CC(=O)Nc4cncc(C(F)(F)F)c4)cc3)cn2)cn1 [Compound P-0178, 2-[4-[2-[[1-(2-methoxyethyl)pyrazol-4-yl]amino]pyrimidin-5-yl]phenyl]-N-[5-(trifluoromethyl)-3-pyridyl]acetamide]
16 | 0.0001 to 10 | COCCn1cc(Nc2ncc(-c3ccc(CC(=O)Nc4cnc(C)c(C(F)(F)F)c4)cc3)cn2)cn1 [Compound P-0179, 2-[4-[2-[[1-(2-methoxyethyl)pyrazol-4-yl]amino]pyrimidin-5-yl]phenyl]-N-[6-methyl-5-(trifluoromethyl)-3-pyridyl]acetamide]
17 | 0.0001 to 10 | COc1nn(C[C@H](C)O)cc1Nc1ncc(-c2ccc(CC(=O)Nc3cnc(C)c(C(F)(F)F)c3)cc2)cn1 [Compound P-0180, 2-[4-[2-[[1-[(2S)-2-hydroxypropyl]-3-methoxy-pyrazol-4-yl]amino]pyrimidin-5-yl]phenyl]-N-[6-methyl-5-(trifluoromethyl)-3-pyridyl]acetamide]
18 | 0.0001 to 10 | O=C(Cc1ccc(-c2cnc3[nH]c(-c4ccnc(N5CCOCC5)c4)cc3c2)cn1)Nc1ccnc(C(F)(F)F)c1 [Compound P-0181, 2-[5-[2-(2-morpholino-4-pyridyl)-1H-pyrrolo[2,3-b]pyridin-5-yl]-2-pyridyl]-N-[2-(trifluoromethyl)-4-pyridyl]acetamide]
19 | 0.0001 to 10 | N#Cc1cc(-c2cc3cc(-c4ccc(CC(=O)Nc5ccnc(C(F)(F)F)c5)nc4)cnc3[nH]2)ccn1 [Compound P-0182, 2-[5-[2-(2-cyano-4-pyridyl)-1H-pyrrolo[2,3-b]pyridin-5-yl]-2-pyridyl]-N-[2-(trifluoromethyl)-4-pyridyl]acetamide]
20 | 0.0001 to 10 | O=C(Cc1ccc(-c2cnc3[nH]c(-c4ccc(N5CCOCC5)nc4)cc3c2)cn1)Nc1ccnc(C(F)(F)F)c1 [Compound P-0183, 2-[5-[2-(6-morpholino-3-pyridyl)-1H-pyrrolo[2,3-b]pyridin-5-yl]-2-pyridyl]-N-[2-(trifluoromethyl)-4-pyridyl]acetamide]
21 | 0.0001 to 10 | COc1ccc(-c2cc3cc(-c4ccc(CC(=O)Nc5cc(C(F)(F)F)ccn5)cc4F)cnc3[nH]2)cn1 [Compound P-0191, 2-[3-fluoro-4-[2-(6-methoxy-3-pyridyl)-1H-pyrrolo[2,3-b]pyridin-5-yl]phenyl]-N-[4-(trifluoromethyl)-2-pyridyl]acetamide]
22 | 0.0001 to 10 | O=C(Cc1ccc(-c2cnc3[nH]c(-c4ccc(N5CCOCC5)nc4)cc3c2)c(F)c1)Nc1cc(C(F)(F)F)ccn1 [Compound P-0192, 2-[3-fluoro-4-[2-(6-morpholino-3-pyridyl)-1H-pyrrolo[2,3-b]pyridin-5-yl]phenyl]-N-[4-(trifluoromethyl)-2-pyridyl]acetamide]
23 | 0.0001 to 10 | N#Cc1cc(-c2cc3cc(-c4ccc(CC(=O)Nc5cc(C(F)(F)F)ccn5)cc4F)cnc3[nH]2)ccn1 [Compound P-0194, 2-[4-[2-(2-cyano-4-pyridyl)-1H-pyrrolo[2,3-b]pyridin-5-yl]-3-fluoro-phenyl]-N-[4-(trifluoromethyl)-2-pyridyl]acetamide]
24 | 0.0001 to 10 | N#Cc1ccc(-c2cc3cc(-c4ccc(CC(=O)Nc5cncc(C(F)(F)F)c5)cc4F)cnc3[nH]2)cn1 [Compound P-0195, 2-[4-[2-(6-cyano-3-pyridyl)-1H-pyrrolo[2,3-b]pyridin-5-yl]-3-fluoro-phenyl]-N-[5-(trifluoromethyl)-3-pyridyl]acetamide]
25 | 0.0001 to 10 | COc1ccc(-c2cc3cc(-c4ccc(CC(=O)Nc5cncc(C(F)(F)F)c5)cc4F)cnc3[nH]2)cn1 [Compound P-0196, 2-[3-fluoro-4-[2-(6-methoxy-3-pyridyl)-1H-pyrrolo[2,3-b]pyridin-5-yl]phenyl]-N-[5-(trifluoromethyl)-3-pyridyl]acetamide]
26 | 0.0001 to 10 | O=C(Cc1ccc(-c2cnc3[nH]c(-c4cnn(C(F)F)c4)cc3c2)c(F)c1)Nc1cncc(C(F)(F)F)c1 [Compound P-0197, 2-[4-[2-[1-(difluoromethyl)pyrazol-4-yl]-1H-pyrrolo[2,3-b]pyridin-5-yl]-3-fluoro-phenyl]-N-[5-(trifluoromethyl)-3-pyridyl]acetamide]
